Reference: patent publication USRE40259E1, “Alpha-aminoamide derivatives useful as analgesic agents” (Newron Pharmaceuticals, S.p.A., priority 1997, dated 2008)
Marks after values point to notes of the source that are not given here.

Legend:
Type in all cases: in vivo
Male NMRI CD-1 mice = experiment: Formalin test (formalin nociception test in mice); settings: for Licking time, Acute phase / Licking time, Chronic phase: 60 min before formalin, mice; for Licking time, Acute phase: acute phase 0-5 min; for Licking time, Chronic phase: chronic phase 30-40 min; for Effect on cumulative licking time in both phases of the formalin test: 7.5-60.0 mg/kg po, result in words
Excerpt: Formalin test is a useful tool for obtaining neurogenic inflammation and continuous pain (Shibata et al, Pain, 38: 347-352, 1989).
Formalin produces a distinct biphasic response. The early phase seems to be caused predominantly by C-fibre activation due to peripheral stimulus, while the late phase appears to be dependent on the combination of an inflammatory reaction in the peripheral tissue and functional changes in the dorsal horn of the spinal cord. This functional changes seem to be initiated by the C-fibre barrage during the early phase (Tjolsen et al. Pain 51, 5-17, 1992). Substance P and bradykinin participate in the early phase, while histamine, serotonin, prostaglandins and bradykinin are involved in the late phase.
Male NMRI CD-1 mice (22-25 g) were injected with […] μl of 2.7% solution of formalin into the right hindpaw and placed immediately into observation chambers. The cumulative licking time of the injected paw was recorded in the acute phase (0-5 min) and in the chronic phase (30-40 min) of the nociceptive response of formalin.
The two representative compounds of the invention (S)-2-[4-(3- fluorobenzyloxy)benzylamino]-propanamide, methanesulfonate (internal code PNU 151774E) and (S)-[2-[4-(3-fluorobenzyloxy)benzylamino]-2-methyl-propanamide […] were administered 60 min before formalin injection at the doses of 7.5, 15.0, 30.0 and 60.0 mg/kg; po. Morphine (5 mg/kg; sc) was used as a positive standard. The activities data were analysed by Dunnett's t-test.

mice [1] = experiment: Rotarod (motor co-ordination); settings: for Rotarod co-ordination (mice fallen/total mice): 2 min on rotarod; for Effect on rotarod activity: 7.5-60.0 mg/kg po, result in words
Experimental: (§1) The effects of these compounds on locomotor activity and rotarod (a test for evaluating motor co-ordination) were studied in order to exclude changes in these parameters as confounding factors in the evaluation of the formalin response. The locomotor activity test lasted 15 min. Five minutes after testing locomotor activity, the mice were put on the rotarod for 2 min and the number of mice falling within this time were counted. Compounds PNU 151774E and PNU 156654E were tested at the doses of 7.5, 15.0, 30.0 and 60.0 mg/kg; po. The compounds were administered 60 min before locomotor activity test.

mice [2] = experiment: Locomotor activity test; settings: for Locomotor activity counts (mean ± sem): 60 min before test, 15 min test, mice; for Effect on locomotor activity: 7.5-60.0 mg/kg po, result in words
Experimental: as §1

Locomotor activity counts (mean ± sem) (mice [2]; 7.5 mg/kg po) | Locomotor activity counts (mean ± sem) (mice [2]; 15 mg/kg po) | Locomotor activity counts (mean ± sem) (mice [2]; 30 mg/kg po) | Locomotor activity counts (mean ± sem) (mice [2]; 60 mg/kg po) | Effect on locomotor activity (mice [2]) | SMILES | Licking time, Acute phase (Male NMRI CD-1 mice; 7.5 mg/kg po) | Licking time, Chronic phase (Male NMRI CD-1 mice; 7.5 mg/kg po) | Licking time, Acute phase (Male NMRI CD-1 mice; 15.0 mg/kg po) | Licking time, Chronic phase (Male NMRI CD-1 mice; 15.0 mg/kg po) | Licking time, Acute phase (Male NMRI CD-1 mice; 30.0 mg/kg po) | Licking time, Chronic phase (Male NMRI CD-1 mice; 30.0 mg/kg po) | Licking time, Acute phase (Male NMRI CD-1 mice; 60.0 mg/kg po) | Licking time, Chronic phase (Male NMRI CD-1 mice; 60.0 mg/kg po) | Effect on cumulative licking time in both phases of the formalin test (Male NMRI CD-1 mice) | Rotarod co-ordination (mice fallen/total mice) (mice [1]; 7.5 mg/kg po) | Rotarod co-ordination (mice fallen/total mice) (mice [1]; 15 mg/kg po) | Rotarod co-ordination (mice fallen/total mice) (mice [1]; 30 mg/kg po) | Rotarod co-ordination (mice fallen/total mice) (mice [1]; 60 mg/kg po) | Effect on rotarod activity (mice [1])
2908 ± 234 counts | 2795 ± 255 counts | 2347 ± 203 counts | 2240 ± 195 counts | without any effect | C[C@H](NCc1ccc(OCc2cccc(F)c2)cc1)C(N)=O [PNU 151774E, (S)-2-[4-(3-fluorobenzyloxy)benzylamino]-propanamide, methanesulfonate] | 137.9 ± 2.4^a sec | 72.4 ± 2.4^ sec | 87.9 ± 3.3^a sec | 64.3 ± 2.8^b sec | 79.4 ± 3.0^a sec | 56.9 ± 2.6^a sec | 63.1 ± 2.6^a sec | 38.1 ± 3.6^a sec | dose-dependently reduced cumulative licking time in both phases | 0/10 | 0/10 | 0/10 | 0/10 | without any effect
1966 ± 188 counts | 2110 ± 256 counts | 2272 ± 317 counts | 2119 ± 310 counts | without any effect | CC(C)(NCc1ccc(OCc2cccc(F)c2)cc1)C(N)=O [PNU 156654E, 2-[4-(3-fluorobenzyloxy)benzylamino]-2-methyl-propanamide] | 108.4 ± 4.2^ sec | 62.4 ± 3.6^ sec | 79.7 ± 3.7^a sec | 42.1 ± 6.2^a sec | 60.0 ± 2.3^a sec | 37.7 ± 6.9^a sec | 44.4 ± 4.2^a sec | 17.3 ± 6.6^a sec | dose-dependently reduced cumulative licking time in both phases | 0/10 | 0/10 | 0/10 | 0/10 | without any effect
